Reference: article PMC7907646, “Identification of a Novel Pattern Recognition Receptor DM9 Domain Containing Protein 4 as a Marker for Pro-Hemocyte of Pacific Oyster Crassostrea gigas” (Frontiers in Immunology, 2021)

Target: T1, CgDM9CP-4 (rCgDM9CP-4) (Magallana gigas, UniProt A0A8W8N023)
T1 construct: full ORF, 145 residues, two tandem DM9 domains, predicted 16 kDa (~18 kDa on gel); pET-30a (NdeI/XhoI), His tag, E. coli Transetta (DE3), Ni column
Test: ELISA on mannose-coated plate, one-site fit
Type: binding
Conditions: apparent Kd; mannose coated at 20 μg in pH 9.6 buffer; 5 mmol L^-1 CaCl2, 0.1 mg mL^-1 BSA, 37°C; anti-His detection

T1 sequence (A0A8W8N023 entry or part of it): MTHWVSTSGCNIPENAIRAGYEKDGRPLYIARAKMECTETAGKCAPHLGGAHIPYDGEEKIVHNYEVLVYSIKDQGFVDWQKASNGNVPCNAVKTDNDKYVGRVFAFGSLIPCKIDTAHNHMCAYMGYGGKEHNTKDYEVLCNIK

## OC[C@H]1OC(O)[C@@H](O)[C@@H](O)[C@@H]1O (stereo partly shown) [Mannose]
  Kd: 90 nM
